Laboratory results: patent publication US20260124221A1, “INJECTABLE PHARMACEUTICAL COMPOSITION FOR TREATMENT OF BREAST CANCER” (KASHIV BIOSCIENCES, LLC, priority 2021, published 2026)

What was measured:
[1] = Pharmacokinetics after single intramuscular administration in female Beagle dogs (Example 19); format: in vivo; conditions: 17 mg/kg IM, mean ± SD; for Cmax / Tmax / AUC(0-inf) / AUC(0-t): female, beagle, dog, plasma, im, 17 mg/kg; for AUC(0-inf): read-out: AUCinf—obs of Compound I in plasma; for AUC(0-t): read-out: AUClast of Compound I in plasma
Protocol: A total of 9 female Beagle dogs were used in this study. The study was performed as a parallel design study.
(§1) All dogs were administered intramuscularly at the gluteal region.
(§2) Dose volume was equally divided and administered to two IM sites.
At each time point, −0.5 mL of blood was withdrawn and transferred into a pre-labelled K2EDTA coated vacutainer tubes and mixed gently by inverting the tube to facilitate mixing of anticoagulant with the blood. Blood samples were kept on gel packs until centrifugation. The collected blood samples were centrifuged at 5000 rpm for 5 min at 4° C. Plasma was separated after centrifugation. All plasma samples were transferred into pre-labeled (Animal ID No., Time point, Study No., and Group) tubes and stored at −70±10° C. until analysis.
Bioanalysis in plasma samples was performed using fit-for-purpose LC-MS/MS method for the quantification of—Group 1—Fulvestrant • Group 2—Fulvestrant and Compound I • Group 3—Fulvestrant and Compound I
Linearity range for Fulvestrant and Compound I analytes were 1 to 1000 ng/mL. The bioanalytical summary for Fulvestrant concentration in all three groups is shown in table 4 and graphical representation is shown in FIG. 3 Concentration of pro-drug Compound I is shown in table 5 and graphical representation is shown in FIG. 4. The plasma pharmacokinetic parameters for Fulvestrant and Compound I were calculated using standard non-compartmental analysis (Phoenix® software, version 8.3, Pharsight Corporation, Mountain View, California 94040/USA) linear trapezoidal method with linear interpolation. Ratio of fulvestrant obtained after dosing Compound I to that of Faslodex was calculated for parameters Cmax and AUC is reported in Table 6(A) and Table 6(B).

[2] = Pharmacokinetic study in female Beagle dog, 169.5 mg/mL composition (Example 24); format: in vivo; conditions: female Beagle dogs, Compound I 169.5 mg/mL, 17 mg/kg IM, two sites
Protocol: A total of 2 female beagle dogs were used in this study.
as §1, §2
At each time point, −0.5 mL of blood was withdrawn and transferred into a pre-labeled K2EDTA coated vacutainer tubes and mixed gently by inverting the tube to facilitate mixing of anticoagulant with the blood. Blood samples were kept on gel packs until centrifugation. The collected blood samples were centrifuged at 5000 rpm for 5 min at 4° C. Plasma was separated after centrifugation. All plasma samples were transferred into pre-labeled (Animal ID No., Time point, Study No., and Group) tubes and stored at −70±10° C. until analysis.
Bioanalysis of plasma samples was performed using fit-for-purpose LC-MS/MS method for the quantification of fulvestrant and Compound I.
Linearity range for Fulvestrant and Compound I analytes were 1 to 1000 ng/mL. The plasmapharmacokinetic parameters for Fulvestrant and Compound I were calculated using standard non-compartmental analysis (Phoenix® software, version 8.3, Pharsight Corporation, Mountain View, California 94040/USA) linear trapezoidal method with linear interpolation.

in vivo = conditions: male, cynomolgus monkey, im, 28.3 mg/kg
Protocol: (§3) Procedure: In this single-dose pharmacokinetics study, four Non-Naïve male Cyno monkeys (Age—2.5-6 years, Weight 2-5 kg) were randomly assigned into two groups to evaluate the pharmacokinetics of Faslodex (1 animal) Vs. Compound I (3 animals) following single intramuscular (IM) administration. The test articles were monitored in plasma for up to 336 h (14 days) following dosing. Faslodex at dose of 25 mg/kg (50 mg/mL fulvestrant strength, 500 mg human equivalent dose) was intramuscularly administrated into monkey at study Day 0. The dosage volume 0.5 mL/kg was equally divided and administered at two sites. Compound I at dose 28.3 mg/kg (25 mg/kg Fulvestrant equivalent) having strength 169.5 mg/mL (150 mg/mL fulvestrant equivalent) was intramuscularly administrated into monkeys at study Day 0. The dosage volume of 0.15 mL/kg was administered on one IM site. Blood samples were collected through cephalic or saphenous vein at 0 (Pre-dose), 0.25, 1, 2, 4, 8, 12, 24, 48, 72, 96, 120, 144, 168, 192, 216, 240, 264, 288, 312, and 336 hours. Plasma concentrations of Compound I and fulvestrant were determined using LC/MS/MS to construct semi-logarithmic plasma concentration-time curves. Pharmacokinetic analysis was performed using non-compartmental model.

[3] = Pharmacokinetic study in male cynomolgus monkey (Example 25); conditions: male cynomolgus monkeys; Compound I 28.3 mg/kg IM, 169.5 mg/mL, one site
Protocol: as §3

[4] = Pharmacokinetics after single intramuscular administration in female SD rats (Example 18); format: in vivo; conditions: Sprague-Dawley, rat, plasma, im, 59 mg/kg, Compound I 100 mg/mL, mean ± SD; for AUC(0-t): read-out: AUClast of Compound I in plasma
Protocol: The objective of the study was to evaluate single site Vs. two site IM injection of compound I and it impact on pharmacokinetic exposure in female rats. Study was performed in female SD rats with n=6 animals per group. Faslodex 52 mg/kg (human equivalent dose) was administrated at two IM sites by dividing dose volume to half. In similar manner, 59 mg/kg (100 mg/mL compound I concentration) (52 mg/kg Fulvestrant equivalent) was administered as single injection (one IM site) or two IM injection by dividing dose volume in half. […] At each time point, −0.3 mL blood was collected in tubes containing Li-heparin as anti-coagulant. For plasma separation, blood was centrifuges at 5000 rpm for 10 minutes at 4° C. and collected plasma was stored at −80° C. until further analysis.
Bioanalysis in plasma samples was performed using fit-for-purpose LC-MS/MS method for the quantification Fulvestrant and Compound I. Linearity range for Fulvestrant and Compound I analytes were 2 to 2000 ng/mL. The bioanalytical summary for Fulvestrant concentration in all three groups is shown in table 1 and graphical representation is shown in FIG. 1 Concentration of Compound I is shown in table 2 and graphical representation is shown in FIG. 2. The plasma pharmacokinetic parameters for Fulvestrant and Compound I were calculated using standard non-compartmental analysis (Phoenix® software, version 8.1, Pharsight Corporation, Mountain View, California 94040/USA) linear trapezoidal method with linear interpolation.

[5] = Stability of Compound I in solubilised composition; format: physicochemical
Description: Example 15: Stability of Compound I in Solubilised Composition
Example 16: Stability of Compound I in Solubilised Composition
Example 17: Stability of Compound I in Solubilised Composition

[6] = composition with 113 mg/ml compound I, Initial
[7] = composition with 113 mg/ml compound I, Room Temp (45 Days)
[8] = composition with 169.5 mg/ml compound I, Initial
[9] = composition with 169.5 mg/ml compound I, Room Temp (30 Days)
[10] = composition with 226 mg/ml compound I, Initial
[11] = composition with 226 mg/ml compound I, Room Temp (30 Days)

Question: What does the source list for `C[C@]12CC[C@@H]3c4ccc(OP(=O)(O)O)cc4C[C@@H](CCC[S+]([O-])CCCC(F)(F)C(F)(F)F)[C@H]3[C@@H]1CC[C@@H]2O` (stereo partly shown) [Compound I]?
Answer: AUC% exp. pol of Compound I ([1]; Compound I 50 mg/mL): 0.967 ± 0.255%; AUC% exp. pol of Compound I ([1]; Compound I 100 mg/mL): 0.974 ± 0.886%; Cmax ([1]; Compound I 50 mg/mL): 624 ± 274 ng/mL; Tmax ([1]; Compound I 50 mg/mL): 0.83 ± 1.01 h; AUC(0-inf) ([1]; Compound I 50 mg/mL): 4260 ± 1060 ng·h/mL; AUC(0-t) ([1]; Compound I 50 mg/mL): 4220 ± 1060 ng·h/mL; Cmax ([1]; Compound I 100 mg/mL): 272 ± 183 ng/mL; Tmax ([1]; Compound I 100 mg/mL): 1.83 ± 1.89 h; AUC(0-inf) ([1]; Compound I 100 mg/mL): 4360 ± 1390 ng·h/mL; AUC(0-t) ([1]; Compound I 100 mg/mL): 4320 ± 1410 ng·h/mL; Tmax ([2]; dog, plasma): 8 h; Cmax ([2]; dog, plasma, mean ± SD): 322 ± 14.1 ng/mL; AUC(0-inf) ([2]; dog, plasma, mean ± SD, read-out: AUCinf—obs of Compound I in plasma): 5540 ± 1880 ng·h/mL; AUC(0-t) ([2]; dog, plasma, mean ± SD, read-out: AUClast of Compound I in plasma): 5510 ± 1880 ng·h/mL; AUC% exp. pol of Compound I ([2]; mean ± SD): 0.578 ± 0.303%; AUC(0-t) (in vivo): 17500 ng·h/mL; C_max (Compound I in plasma) [3]: 1081 ng/mL; T_max (Compound I in plasma) [3]: 3.42 h; T_½ (Compound I in plasma) [3]: 12.79 h; Tlast (Compound I in plasma) [3]: 152.00 h; Cmax ([4]; IM single site): 969 ± 349 ng/mL; Tmax ([4]; IM single site): 3.17 ± 2.56 h; AUC(0-t) ([4]; IM single site): 12400 ± 3430 ng·h/mL; Cmax ([4]; IM two sites): 1150 ± 500 ng/mL; Tmax ([4]; IM two sites): 1.83 ± 0.41 h; AUC(0-t) ([4]; IM two sites): 12800 ± 3120 ng·h/mL; Description ([5]; composition with 113 mg/ml compound I (equivalent to 100 mg/ml Fulvestrant), Initial): Clear colorless to light; Assay of compound I(%) [5, 6]: 104.0%; Visual Inspection [5, 6]: Clear solution, No; Assay of compound I(%) [5, 7]: 103.3%; Description [5, 7]: Clear colorless to light; Visual Inspection [5, 7]: Clear solution, No; Description ([5]; composition with 169.5 mg/ml compound I (equivalent to 150 mg/ml Fulvestrant), Initial): Clear colorless to light; Assay of compound I(%) [5, 8]: 100.4%; Visual Inspection [5, 8]: Clear solution, No; Assay of compound I(%) [5, 9]: 95.30%; Description [5, 9]: Clear colorless to light; Visual Inspection [5, 9]: Clear solution, No; Assay of compound I(%) [5, 10]: 101.8%; Visual Inspection [5, 10]: Clear solution, No; Assay of compound I(%) [5, 11]: 98%; Description [5, 11]: Clear colorless to light; Visual Inspection [5, 11]: Clear solution, No
